The record followed here is patent publication US10844062B2, “Pyridine derivative inhibiting RAF kinase and vascular endothelial growth factor receptor, method for preparing same, pharmaceutical composition containing same, and use thereof” (SAMJIN PHARMACEUTICAL CO., LTD., priority 2016, dated 2020).

The term IC50 denotes the concentration that gives 50% inhibition.

Each structure is given as a SMILES string. Some results are limits rather than exact numbers.

The assay deals with LS513 KRAS G12V (colon). The assay can be described thus: MTT assay. The assay is classed as cell-based. Particulars: Homo sapiens, LS-513, 72 h, Table 4; 3 days incubation; read-out: MTT assay IC50 KRAS mutant (Colon) LS513 KRAS G12V. The protocol: MTT assay is frequently used for the purpose of primary screening for the sensitivity of anticancer agents and to examine cytotoxicity. When cancer cells are treated with varying concentrations of any anticancer agent for a predetermined time to induce death of the cells and are then treated with MTT, and when the formation of formazan is measured, the concentration of the anticancer agent, at which about 50% of the cells survive, can be determined. This concentration value is called IC50. IC50 values differ between drugs, and thus can be characteristic of the drugs. Using this method, the effects of anticancer agents against cell proliferation can be quantitatively compared. Thus, in order to measure the cytotoxicity of samples, MTT assay was performed using CellTiter 96 Non-radioactive Cell Proliferation Assay Kit (Promega).
Cells in a cell suspension were counted with a hematocytometer, and then 200 μL of the cell suspension was added to each well of a 96 well plate at a desired concentration (cell amount determined depending on a cell line). After cell seeding, the cells were incubated in a CO2 incubator at 37° C. overnight. After one day of cell stabilization, the cells were treated with desired concentrations of the compounds. The cells were incubated in a CO2 incubator at 37° C. for 3 days, and then the sample was removed, and 200 μL of MTT solution was added to each well. After 2 hours of incubation, the MTT dilution was carefully shaken, and 200 μL of DMSO was added to each well, followed by shaking with a plate shaker for 60 minutes.
For orientation: Formazan colour is commonly taken as a measure of viable cells.

`COc1ccc(C(=O)Nc2ccc(F)c(Nc3ncccc3-c3ncnc4[nH]cnc34)c2F)cc1C(F)(F)F` [Example 38, N-(3-(3-(9H-Purin-6-Yl)Pyridin-2-Ylamino)-2,4-Difluorophenyl)-4-Methoxy-3-(Trifluoromethyl)Benzamide]: the half-inhibitory concentration (IC50) was found to be 1860 nM. As for `CC(C)(C#N)c1cccc(C(=O)Nc2ccc(Nc3ncccc3-c3ncnc4[nH]cnc34)c(F)c2)c1` [Example 39, N-(4-(3-(9H-Purin-6-Yl)Pyridin-2-Ylamino)-3-Fluorophenyl)-3-(2-Cyanopropan-2-Yl)Benzamide], the IC50 was greater than 10000 nM. As for `O=C(Nc1ccc(F)c(Nc2ncccc2-c2ncnc3[nH]cnc23)c1F)c1cc([N+](=O)[O-])cc(C(F)(F)F)c1` [Example 40, N-(3-(3-(9H-Purin-6-Yl)Pyridin-2-Ylamino)-2,4-Difluorophenyl)-3-Nitro-5-(Trifluoromethyl)Benzamide], the IC50 is 163 nM. Turning to `CC(C)(C#N)c1cc(C(=O)Nc2ccc(F)c(Nc3ncccc3-c3ncnc4[nH]cnc34)c2F)ccc1Cl` [Example 41, N-(3-(3-(9H-Purin-6-Yl)Pyridin-2-Ylamino)-2,4-Difluorophenyl)-4-Chloro-3-(2-Cyanopropan-2-Yl)Benzamide], the IC50 came out at 475 nM. For the compound `CC(C)(C#N)c1cccc(C(=O)Nc2ccc(F)c(Nc3ncccc3-c3ncnc4[nH]cnc34)c2F)c1Cl` [Example 42, N-(3-(3-(9H-Purin-6-Yl)Pyridin-2-Ylamino)-2,4-Difluorophenyl)-2-Chloro-3-(2-Cyanopropan-2-Yl)Benzamide], the IC50 stood at 1330 nM. Consider `CC(C)(C#N)c1cc(F)cc(C(=O)Nc2ccc(F)c(Nc3ncccc3-c3ncnc4[nH]cnc34)c2F)c1` [Example 43, N-(3-(3-(9H-Purin-6-Yl)Pyridin-2-Ylamino)-2,4-Difluorophenyl)-3-(2-Cyanopropan-2-Yl)-5-Fluorobenzamide], for which the IC50 turned out to be 402 nM.

`CC(C)(C#N)c1cc(C(=O)Nc2ccc(F)c(Nc3ncccc3-c3ncnc4[nH]cnc34)c2F)cc(F)c1F` [Example 44, N-(3-(3-(9H-Purin-6-Yl)Pyridin-2-Ylamino)-2,4-Difluorophenyl)-3-(2-Cyanopropan-2-Yl)-4,5-Difluorobenzamide]: the IC50 turned out to be 1320 nM. Take `O=C(Nc1ccc(F)c(Nc2ncccc2-c2ncnc3[nH]cnc23)c1F)c1cccc(Cl)c1` [Example 45, N-(3-(3-(9H-Purin-6-Yl)Pyridin-2-Ylamino)-2,4-Difluorophenyl)-3-Chlorobenzamide]: the IC50 is greater than 10000 nM. The same measure for `CN(C)c1cccc(C(=O)Nc2ccc(F)c(Nc3ncccc3-c3ncnc4[nH]cnc34)c2F)c1` [Example 46, N-(3-(3-(9H-Purin-6-Yl)Pyridin-2-Ylamino)-2,4-Difluorophenyl)-3-(Dimethylamino)Benzamide]: 7090 nM. Regarding `Cc1cccc(C(=O)Nc2ccc(F)c(Nc3ncccc3-c3ncnc4[nH]cnc34)c2F)c1` [Example 47, N-(3-(3-(9H-Purin-6-Yl)Pyridin-2-Ylamino)-2,4-Difluorophenyl)-3-Methylbenzamide], the IC50 was greater than 10000 nM. As to `O=C(Nc1cccc(Nc2ncccc2-c2ncnc3[nH]cnc23)c1)c1cccc(Cl)c1` [Example 48, N-(3-(3-(9H-Purin-6-Yl)Pyridin-2-Ylamino)Phenyl)-3-Chlorobenzamide], the IC50 worked out at 2480 nM.

As for `CC(C)(C#N)c1cccc(C(=O)Nc2ccc(F)c(Nc3ncccc3-c3ncnc4[nH]cnc34)c2)c1` [Example 49, N-(3-(3-(9H-Purin-6-Yl)Pyridin-2-Ylamino)-4-Fluorophenyl)-3-(2-Cyanopropan-2-Yl)Benzamide], the IC50 is 192 nM. Take `O=C(Nc1ccc(F)c(Nc2ncccc2-c2ncnc3[nH]cnc23)c1)c1cccc(C(F)(F)F)c1` [Example 50, N-(3-(3-(9H-Purin-6-Yl)Pyridin-2-Ylamino)-4-Fluorophenyl)-3-(Trifluoromethyl)Benzamide]: the IC50 came to 221 nM. On to `O=C(Nc1cccc(Nc2ncccc2-c2ncnc3[nH]cnc23)c1)c1cccc(C(F)(F)F)c1` [Example 51, N-(3-(3-(9H-Purin-6-Yl)Pyridin-2-Ylamino)Phenyl)-3-(Trifluoromethyl)Benzamide], for which the IC50 worked out at 5670 nM. With `O=C(Nc1ccc(F)c(Nc2ncccc2-c2ncnc3[nH]cnc23)c1F)c1ccc([N+](=O)[O-])cc1` [Example 52, N-(3-(3-(9H-Purin-6-Yl)Pyridin-2-Ylamino)-2,4-Difluorophenyl)-4-Nitrobenzamide], the IC50 is greater than 10000 nM.

For `Nc1cccc(C(=O)Nc2ccc(F)c(Nc3ncccc3-c3ncnc4[nH]cnc34)c2F)c1` [Example 54, N-(3-(3-(9H-Purin-6-Yl)Pyridin-2-Ylamino)-2,4-Difluorophenyl)-3-Aminobenzamide], the IC50 was greater than 10000 nM.

In the case of `COC(=O)Nc1cccc(C(=O)Nc2ccc(F)c(Nc3ncccc3-c3ncnc4[nH]cnc34)c2F)c1` [Example 55, Methyl 3-(3-(3-(9H-Purin-6-Yl)Pyridin-2-Ylamino)-2,4-Difluorophenylcarbamoyl)Phenylcarbamate], the half-inhibitory concentration (IC50) was greater than 10000 nM. In the case of `O=C(Nc1ccc(F)c(Nc2ncccc2-c2ncnc3[nH]cnc23)c1F)c1cnccn1` [Example 56, N-(3-(3-(9H-Purin-6-Yl)Pyridin-2-Ylamino)-2,4-Difluorophenyl)Pyrazine-2-Carboxamide], the 50% inhibitory concentration (IC50) was greater than 10000 nM. As for `O=C(Nc1ccc(F)c(Nc2ncccc2-c2ncnc3[nH]cnc23)c1F)c1ccccc1` [Example 57, N-(3-(3-(9H-Purin-6-Yl)Pyridin-2-Ylamino)-2,4-Difluorophenyl)Benzamide], the figure is greater than 10000 nM; as for `O=C(Nc1ccc(F)c(Nc2ncccc2-c2ncnc3[nH]cnc23)c1F)c1cc(C(F)(F)F)cc(C(F)(F)F)c1` [Example 58, N-2,4-Difluoro-3-[3-(9H-Purin-6-Yl)Pyridin-2-Ylamino)-Phenyl-3,5-Bistrifluoromethylbenzamide], 407 nM; as for `O=C(Nc1cc(Nc2ncccc2-c2ncnc3[nH]cnc23)ccc1F)c1ccc(Cl)c(C(F)(F)F)c1` [Example 61, 4-Chloro-N-2-Fluoro-5-[3-(9H-Purin-6-Yl)Pyridin-2-Ylamino)Phenyl-3-(Trifluoromethyl)Benzamide], 439 nM. On to `O=C(Nc1cc(Nc2ncccc2-c2ncnc3[nH]cnc23)ccc1F)c1cc([N+](=O)[O-])cc(C(F)(F)F)c1` [Example 62, N-2-Fluoro-5-[3-(9H-Purin-6-Yl)Pyridin-2-Ylamino)Phenyl-3-Nitro-5-(Trifluoromethyl)Benzamide], for which the IC50 was 702 nM. As for `Cc1cccc(C(=O)Nc2cc(Nc3ncccc3-c3ncnc4[nH]cnc34)ccc2F)n1` [Example 64, N-2-Fluoro-5-[3-(9H-Purin-6-Yl)Pyridin-2-Ylamino)Phenyl-(6-Methylpyridin-2-Yl)Benzamide], the figure is 300 nM; as for `O=C(Nc1cc(Nc2ncccc2-c2ncnc3[nH]cnc23)ccc1Cl)c1cccc(C(F)(F)F)c1` [Example 66, N-2-Chloro-5-[3-(9H-Purin-6-Yl)Pyridin-2-Ylamino)Phenyl-3-Trifluoromethylbenzamide], 135 nM; as for `O=C(Nc1cc(Nc2ncccc2-c2ncnc3[nH]cnc23)ccc1Cl)c1cc(F)cc(C(F)(F)F)c1` [Example 67, N-2-Chloro-5-[3-(9H-Purin-6-Yl)Pyridin-2-Ylamino)Phenyl-3-Fluoro-5-Trifluoromethylbenzamide], 6590 nM.

In the case of `Cc1ccc(Nc2ncccc2-c2ncnc3[nH]cnc23)cc1NC(=O)c1cccc(C(F)(F)F)c1` [Example 68, N-2-Methyl-5-[3-(9H-Purin-6-Yl)Pyridin-2-Ylamino)Phenyl-3-Trifluoromethylbenzamide], the IC50 is 6590 nM. `COc1ccc(Nc2ncccc2-c2ncnc3[nH]cnc23)cc1NC(=O)c1cccc(C(F)(F)F)c1` [Example 69, N-2-Methoxy-5-[3-(9H-Purin-6-Yl)Pyridin-2-Ylamino)Phenyl-3-Trifluoromethylbenzamide]: the IC50 worked out at 7100 nM.

Consider `COc1ccc(NC(=O)c2cccc(C(F)(F)F)c2)cc1Nc1ncccc1-c1ncnc2[nH]cnc12` [Example 70, N-4-Methoxy-5-[3-(9H-Purin-6-Yl)Pyridin-2-Ylamino)Phenyl-3-Trifluoromethylbenzamide], for which the IC50 worked out at 757 nM. Turning to `O=C(Nc1c(F)ccc(Nc2ncccc2-c2ncnc3[nH]cnc23)c1F)c1cccc(C(F)(F)F)c1` [Example 72, N-2,6-Difluoro-3-[3-(9H-Purin-6-Yl)Pyridin-2-Ylamino)Phenyl-3-Trifluoromethylbenzamide], the IC50 worked out at 1270 nM. In the case of `O=C(Nc1cccc(C(F)(F)F)c1)c1cc(Nc2ncccc2-c2ncnc3[nH]cnc23)ccc1F` [Example 73, 2-Fluoro-5-[3-(9H-Purin-6-Yl)Pyridin-2-Ylamino]-N-(3-Trifluoromethylphenyl)Benzamide], the IC50 is 80 nM. As for `O=C(Nc1ccc(Cl)c(C(F)(F)F)c1)Nc1cc(Nc2ncccc2-c2ncnc3[nH]cnc23)ccc1F` [Example 74, 1-(4-Chloro-3-Trifluoromethylphenyl)-3-2-Fluoro-5-[3-(9H-Purin-6-Yl)Pyridin-2-Ylamino]Phenylurea], the figure is 68 nM; as for `O=C(Nc1cccc(C(F)(F)F)c1)Nc1ccc(Nc2ncccc2-c2ncnc3[nH]cnc23)c(F)c1` [Example 75, 1-3-Fluoro-4-[3-(9H-Purin-6-Yl)Pyridin-2-Ylamino]Phenyl-3-(3-Trifluoromethylphenyl)Urea], greater than 10000 nM.
